Results published in patent publication US20180153995A1, “USE OF ANTIMICROBIAL POLYMERS FOR RE-SENSITIZATION OF MICROORGANISMS UPON EMERGENCE OF RESISTANCE TO ANTI-MICROBIAL AGENTS” (Technion Research & Development Foundation Limited, priority 2008, published 2018).
Where two headings read alike, the source gives them in different places.

How the values were obtained:
[1] = system: P. mirabilis 1285; assay type: cell-based, Proteus mirabilis
[2] = system: P. aeruginosa 8732; test: Antibiotic MIC by microdilution with or without sub-MIC polymer; assay type: cell-based, Pseudomonas aeruginosa; settings: P. aeruginosa 8732; no polymer (None), Table 10
Protocol: (§1) MICs were determined by microdilution susceptibility testing in 96-well plates (by Nunc) using inocula of 10^5 bacteria per ml. Cell populations were evaluated by optical density measurements at 620 nm and were calibrated against a set of standards. Hundred (100) μl of a bacterial suspension were added to 100 μl of culture medium (control) or to 100 μl of culture medium containing various polymer concentrations in 2-fold serial dilutions. Inhibition of proliferation was determined by optical density measurements at 620 nm after an incubation period of 24 hours at 37° C.
Inhibition of proliferation was determined by optical density measurements at 620 nm after an incubation period of 24 hours at 37° C.

[3] = system: MRSA 15852; assay type: cell-based, Staphylococcus aureus; settings: S. aureus 15852
Protocol: The fractionary inhibitory (FIC) concentration index for combinations of two antimicrobial agents was calculated as follows: FIC index=FICA+FICB=A/MICA+B/MICB where A and B are the MIC values of agent A and agent B in the combination, MICA and MICB are the MICs of agent A and agent B alone, and FICA and FICB are the FICs of agent A and agent B.
The FIC indexes were interpreted as follows: less than 0.5 indicates a clear re-sensitizing effect; from 0.5 to 4 indicates a marginal or null re-sensitizing effect; and over 4 indicates antagonism.

[4] = system: E. coli 16329; assay type: cell-based, Escherichia coli
Protocol: as §1
(§2) 100 μl of a bacterial suspension were added to 100 μl of culture medium (control) or to 100 μl of culture medium containing various antibiotic and C14(9-ene)KKNC12KNH2 (SEQ ID NO: 5) concentrations in 2-fold serial dilutions. Inhibition of proliferation was determined by optical density measurements at 620 nm after an incubation period of 24 hours at 37° C.

[5] = system: P. mirabilis 1285; assay type: cell-based, Proteus mirabilis; settings: no polymer (None), Table 12
Protocol: as §1, §2

[6] = system: S. aureus 15877; test: Antibiotic MIC by microdilution with or without sub-MIC polymer; assay type: cell-based, Staphylococcus aureus
[7] = system: S. aureus 17314; test: as above; assay type: cell-based, Staphylococcus aureus
[8] = +¼ MIC (1.6 μM) C12(5-ene)KKNC12KNH2
[9] = +½ MIC (3.12 μM) C12(5-ene)KKNC12KNH2
[10] = +⅓ MIC (2.1 μM) C12(5-ene)KKNC12KNH2

O=C(O)c1cn(C2CC2)c2cc(N3CCNCC3)c(F)cc2c1=O [Ciprofloxacin, ciprofloxacin]
Antibiotic MIC ([1]; +¼ MIC (1.6 μM) C12K(KNC12K)2NH2): 32 µg/mL | Antibiotic MIC ([1]; +½ MIC (3.12 μM) C12K(KNC12K)2NH2): 8 µg/mL | Antibiotic MIC ([1]; +⅓ MIC (2.1 μM) C12K(KNC12K)2NH2): 16 µg/mL | Antibiotic MIC [2]: <0.03 µg/mL | Antibiotic MIC [3, 8]: 16 µg/mL | Antibiotic MIC ([3]; +¼ MIC (1.6 μM) C12KKNC12KNH2): 32 µg/mL | Antibiotic MIC [3, 9]: 16 µg/mL | Antibiotic MIC ([3]; +½ MIC (3.12 μM) C12KKNC12KNH2): 32 µg/mL | Antibiotic MIC [3, 10]: 16 µg/mL | Antibiotic MIC ([3]; +⅓ MIC (2.1 μM) C12KKNC12KNH2): 32 µg/mL | Antibiotic MIC ([3]; no polymer (None), Table 8): 16 µg/mL | Antibiotic MIC ([3]; no polymer (None), Table 11): 32 µg/mL | Antibiotic MIC ([4]; E. coli 16329, +¼ MIC (1.6 μM) C16(9-ene)KKNC12KNH2): 64 µg/mL | Antibiotic MIC ([4]; E. coli 16329, +½ MIC (3.12 μM) C16(9-ene)KKNC12KNH2): 64 µg/mL | Antibiotic MIC ([4]; E. coli 16329, +⅓ MIC (2.1 μM) C16(9-ene)KKNC12KNH2): 64 µg/mL | Antibiotic MIC ([4]; E. coli 16329, no polymer (None), Table 10): 64 µg/mL | Antibiotic MIC ([4]; E. coli U-16329, +¼ MIC C12K(NC8K)5NH2): 64 µg/mL | Antibiotic MIC ([4]; E. coli U-16329, +½ MIC C12K(NC8K)5NH2): 32 µg/mL | Antibiotic MIC ([4]; E. coli U-16329, +⅓ MIC C12K(NC8K)5NH2): 64 µg/mL | Antibiotic MIC, None ([4]; E. coli U-16329, antibiotic alone (Table 15)): 64 µg/mL | Antibiotic MIC ([4]; E. coli U-16329, no polymer (None), Table 14): 64 µg/mL | Antibiotic MIC in presence of C12K(NC8K)7NH2 (SEQ ID NO: 4), +¼ MIC ([4]; E. coli U-16329, polymer at ¼ of its MIC): 64 to 128 µg/mL | Antibiotic MIC in presence of C12K(NC8K)7NH2 (SEQ ID NO: 4), +½ MIC ([4]; E. coli U-16329, polymer at ½ of its MIC): 64 µg/mL | Antibiotic MIC in presence of C12K(NC8K)7NH2 (SEQ ID NO: 4), +⅓ MIC ([4]; E. coli U-16329, polymer at ⅓ of its MIC): 64 µg/mL | Antibiotic MIC [5]: 32 µg/mL | Antibiotic MIC [6, 8]: 4 µg/mL | Antibiotic MIC [6, 9]: 4 µg/mL | Antibiotic MIC [6, 10]: 4 µg/mL | Antibiotic MIC ([6]; no polymer (None), Table 8): 4 µg/mL | Antibiotic MIC [7]: 128 µg/mL | Antibiotic MIC ([7]; S. aureus 17314, +¼ MIC (1.6 μM) C12K(KNC12K)2NH2): 128 µg/mL | Antibiotic MIC ([7]; S. aureus 17314, +¼ MIC (1.6 μM) C14(9-ene)KKNC12KNH2): 64 µg/mL | Antibiotic MIC ([7]; S. aureus 17314, +¼ MIC (1.6 μM) C16(9-ene)KKNC12KNH2): 32 µg/mL | Antibiotic MIC ([7]; S. aureus 17314, +½ MIC (3.12 μM) C12K(KNC12K)2NH2): 64 µg/mL | Antibiotic MIC ([7]; S. aureus 17314, +½ MIC (3.12 μM) C12KKNC12KNH2): 64 µg/mL | Antibiotic MIC ([7]; S. aureus 17314, +½ MIC (3.12 μM) C14(9-ene)KKNC12KNH2): 64 µg/mL | Antibiotic MIC ([7]; S. aureus 17314, +½ MIC (3.12 μM) C16(9-ene)KKNC12KNH2): 16 µg/mL | Antibiotic MIC ([7]; S. aureus 17314, +⅓ MIC (2.1 μM) C12K(KNC12K)2NH2): 64 µg/mL | Antibiotic MIC ([7]; S. aureus 17314, +⅓ MIC (2.1 μM) C12KKNC12KNH2): 64 µg/mL | Antibiotic MIC ([7]; S. aureus 17314, +⅓ MIC (2.1 μM) C14(9-ene)KKNC12KNH2): 64 µg/mL | Antibiotic MIC ([7]; S. aureus 17314, +⅓ MIC (2.1 μM) C16(9-ene)KKNC12KNH2): 32 µg/mL | Antibiotic MIC ([7]; S. aureus 17314, no polymer (None), Table 9): 64 µg/mL | Antibiotic MIC ([7]; S. aureus 17314, no polymer (None), Table 10): 64 µg/mL | Antibiotic MIC ([7]; S. aureus 17314, no polymer (None), Table 11): 128 µg/mL | Antibiotic MIC ([7]; S. aureus 17314, no polymer (None), Table 12): 128 µg/mL
